Measured values from publication PMC6748948, “A Bone Morphogenetic Protein (BMP)-derived Peptide Based on the Type I Receptor-binding Site Modifies Cell-type Dependent BMP Signalling” (Scientific Reports, 2019).
Peptide text beside a SMILES is read from it.

Columns and labels:
BMP4 binding to ALK3-Fc = assay: SPR, BMP4 binding to ALK3-Fc in the presence of peptide; conditions: BMP4 50 nM, peptide 0.25-1 mM, compared with P3
Protocol: Peptide-receptor binding assays were performed using Biacore T200 biosensor (Biacore/GE Healthcare). ALK1-Fc, ALK2-Fc or ALK3-Fc was covalently linked onto individual flow cells of a research grade CM5 chip (GE Healthcare) via amine-coupling using standard manufacturer’s protocol. One flow cell was used as a control for subtracting non-specific binding. Peptides were injected over the immobilised chip at various concentrations up to 1 mM at a flow rate of 30 μl/min for 3 min at 37 °C in running buffer containing 0.01 M HEPES, 0.5 M NaCl, 3 mM EDTA and 0.005% v/v Surfactant P20 (pH 7.4). At the end of each peptide injection, the chip surface was regenerated with 4 M Guanidine hydrochloride (GnHCl). The biotinylated peptide P3* was immobilised onto a streptavidin (SA) chip (GE Healthcare) following the manufacturer’s protocol. Binding assays were carried out using a similar protocol as described above, only with a different injection time of 4 min. For BMP9-ALK1 and BMP4-ALK3 binding assays, BMP9 and BMP4 were added at 50 nM alone or in the presence of peptide P3 or P3r at 0.25 mM, 0.5 mM or 1 mM. Each cycle was set with a dissociation time of 12 min. Duplicated injections were performed for each ligand along with buffer blanks. The equilibrium dissociation constant KD was determined by fitting the data to a steady-state model using BIAevaluation software (GE Healthcare). […]

[1] = system: Smad1/5 phosphorylation in HMEC-1; assay: BMP4-induced Smad1/5 phosphorylation in HMEC-1; format: cell-based, human; conditions: peptide 250 μM, BMP4 0.3 ng/ml (11.54 pM GFD dimer), N = 3
[2] = system: Smad1/5 phosphorylation in hPAECs; assay: BMP9-induced Smad1/5 phosphorylation assay in hPAECs (immunoblot); format: cell-based, human; conditions: BMP9 0.03 ng/ml (1.24 pM GFD dimer), peptide 250 μM (P3 also dose-dependent), 40 min, serum-starved, immunoblot densitometry
Protocol: Endothelial cells were seeded in 6-cm dishes at 9 × 10^5 cells/dish and cultured for 24 hours (h) to full confluence, and then serum-starved for 16 h before treatments with control buffer, BMP9 alone, BMP9 with peptides, or peptides alone. After 40 min, cells were washed once with PBS and snap-frozen on dry ice to harvest. Cells were then lysed with buffer containing 125 mM Tris-HCl (pH 6.8), 2% SDS and 10% glycerol. The total protein concentration was determined using the DC^TM protein assay (Bio-Rad), of which 30 μg of total cell proteins was fractionated on 12% SDS-PAGE under non-reducing condition. The phosphorylation of Smad1/5 and total Smad1 were detected by anti-phospho-Smad1/5 antibody (9516 S) and anti-Smad 1 antibody (9743 S). The intensity of pSmad1/5 bands were quantified using ImageJ software, using β-actin or α-tubulin as the loading control.

[3] = system: ALP activity in C2C12 cells; assay: BMP9-induced ALP activity in C2C12 cells; format: cell-based, mouse; conditions: peptide 160 μM with BMP9, 65 h, DMEM 0.25% FBS, three independent experiments in duplicate
Protocol: C2C12 mouse myoblasts were seeded in 24-well plates at 25,000 cells/well with antibiotics for 48 h. Treatments were performed in DMEM, 0.25% FBS with antibiotics in a final volume of 1.1 ml for 65 h. Cells were harvested and lysed in 1% Triton-X100 in PBS and the extracted total protein was quantified by Bio-Rad DC^TM protein assay (Bio-Rad). ALP activity was determined by incubating 15 μg of the total protein with ALP substrate p-nitrophenyl phosphate (PNPP, Sigma-Aldrich) and absorbance of the product p-nitrophenol (PNP) was recorded at 405 nm in 5 min intervals for 1 h. The relative ALP activity was expressed as fold change to the BMP9-treated control with data presented as means ± S.E.

ALK3 = ALK3 expressed from different host cells; read-out: KD values of BMP4 for ALK3; cited from earlier work
Protocol: (§1) It is intriguing why the same peptide could promote BMP9 signalling in PAECs while inhibit BMP4 signalling in HMECs, an effect which is also recapitulated in the SPR binding studies (Fig. 4A–D, Supplemental Fig. 4). Whilst it is difficult to provide a direct structural explanation, this may relate to the difference in affinities and concentrations of the receptors for the ligands. ALK1 binds BMP9 with affinity of around 0.03 nM[8]. The reported KD values of BMP4 for ALK3 (with ALK3 expressed from different host cells) are 1–10 nM[30],[31]. It is plausible that the inhibitory effect of P3 on BM ...

ALK1 = conditions: read-out: affinity of ALK1 for BMP9; cited from earlier work
Protocol: as §1

## CC[C@H](C)[C@H](NC(=O)[C@H](CC(=O)O)NC(=O)[C@@H](NC(=O)[C@@H](NC(=O)[C@H](CCCCN)NC(=O)[C@H](Cc1ccccc1)NC(=O)[C@@H](NC(=O)[C@H](CCCCN)NC(=O)[C@H](CC(=O)O)NC(=O)[C@H](CC(C)C)NC(=O)[C@H](CCC(N)=O)NC(=O)[C@H](C)NC(=O)[C@@H]1CCCN1C(=O)[C@@H](NC(=O)[C@@H](NC(=O)[C@H](CS)NC(=O)[C@@H](NC(=O)[C@@H]1CCCN1)[C@@H](C)O)[C@@H](C)O)[C@@H](C)O)C(C)C)[C@@H](C)O)[C@@H](C)O)C(=O)N[C@@H](Cc1c[nH]cn1)C(=O)N[C@@H](Cc1ccccc1)C(=O)N[C@@H](CS)C(=O)N[C@@H](Cc1c[nH]cn1)C(=O)N[C@@H](CC(C)C)C(=O)O [Peptide P3r] (H-PTCTTPAQLDKVFKTTDIHFCHL-OH; N-terminus and C-terminus assumed)
BMP4 binding to ALK3-Fc
  competing BMP4 binding to ALK3 (in words): much less effective
[1]
  effect on BMP4-induced Smad1/5 phosphorylation in HMEC-1: failed to inhibit
[2]
  effect on BMP9-induced Smad1/5 phosphorylation in hPAECs: significantly enhanced
[3]
  effect on BMP9-induced ALP activity in C2C12 cells: No difference

## BMP4: bone morphogenetic protein 4, growth factor
ALK3
  Kd: 1 to 10 nM

## BMP9: bone morphogenetic protein 9, growth factor
ALK1
  Kd: ~0.03 nM
